l = locked nucleic acid (LNA); [5mC] = 5-methylcytosine; d = 2'-deoxy (DNA)
tested on: yeast HSP78 (YDR258C) sequence; assay: Duplex melting temperatures of HSP78 25-mer capture probes (UV spectrophotometer); conditions: 25-mer capture probe duplex with complementary target; design PM = perfectly matched, MM = single mismatch; DNA, LNA_T (T) or LNA_TC (TC) substituted

| Substance | Average duplex melting temp. |
| --- | --- |
| 12788 (DNA GATGAACTCAGGTGGATAGGATCTT; sugars from the 5' end ddlddddlddddldddlddddldld, backbone not given here; further chemistry not fully specified) [compound 12788] | 71 °C |
| 12789 (DNA TCAGTTAGCCAATCCTTCGCTTCAT; sugars from the 5' end ldddllddddddlddlldddllddd, backbone not given here; further chemistry not fully specified) [compound 12789] | 75.7 °C |
| 12790 (DNA GTTGCCATGGAGTTCAAAATCTGTC; sugars from the 5' end dllddddlddddlddddddldldld, backbone not given here; further chemistry not fully specified) [compound 12790] | 74.7 °C |
| 12791 (DNA AGACGTACAGCATCAGAAATAGCAG; DNA at ACG, LNA at T, backbone not given here; further chemistry not fully specified) [compound 12791] | 71.4 °C |
| 12792 (DNA TTTGGTAGCACGACAAGCTTAGTAT; sugars from the 5' end lllddlddddddddddddllddldd, backbone not given here; further chemistry not fully specified) [compound 12792] | 74.2 °C |
| 12793 (DNA ATAAAGCTGGCAATAGGTCTCTTTT; sugars from the 5' end dldddddldddddldddldldllld, backbone not given here; further chemistry not fully specified) [compound 12793] | 74.3 °C |
| 12794 (DNA TTTTTCGGCCAAACGATCTTGAATT; sugars from the 5' end ldllldddddddddddldlldddld, backbone not given here; further chemistry not fully specified) [compound 12794] | 71 °C |
| 12795 (DNA CACTCTAACAGTTTCGCCGTTTCTA; sugars from the 5' end dddldlddddddlddddddllldld, backbone not given here; further chemistry not fully specified) [compound 12795] | 75.5 °C |
| 12796 (DNA TCAATGGCCTTGCACCATATAATTG; DNA at ACG, LNA at T, backbone not given here; further chemistry not fully specified) [compound 12796] | 74 °C |
| 12797 (DNA AAAACGACAGCATAAGGCTTTCTTC; DNA at ACG, LNA at T, backbone not given here; further chemistry not fully specified) [compound 12797] | 71.7 °C |
| 12798 (DNA ATTGACCTCAAAACTTTCTTGGATA; DNA at ACG, LNA at T, backbone not given here; further chemistry not fully specified) [compound 12798] | 70.2 °C |
| 12799 (DNA CCCAACTTTGTGTCGTTTAATAAAA; DNA at ACG, LNA at T, backbone not given here; further chemistry not fully specified) [compound 12799] | 75.1 °C |
| 12800 (DNA ACCATCATCACCCAACCTTGTGTCG; sugars from the 5' end dlddlddldddllddddlddlddld, [5mC] at 2, 12, 13, 24, backbone not given here; further chemistry not fully specified) [compound 12800] | 74.2 °C |
| 12802 (DNA TGGCCTAGGGAATCGGTCAGCTTAC; sugars from the 5' end lddldlddddddllddldddldldd, [5mC] at 4, 14, 21, backbone not given here; further chemistry not fully specified) [compound 12802] | 83.6 °C |
| 12803 (DNA TTGGAAACATCGGGGTGCGCTTTTT; sugars from the 5' end lldddddlddlddddldldddldld, [5mC] at 8, 11, 18, backbone not given here; further chemistry not fully specified) [compound 12803] | 80.8 °C |
| 12804 (DNA GAAACATCGGGGTGCGCTTTTTCAA; sugars from the 5' end ddddldllddddldldddddldldd, [5mC] at 5, 8, 15, 23, backbone not given here; further chemistry not fully specified) [compound 12804] | 83.2 °C |
| 12805 (DNA GACAGCCTCAGTTAATTGGCCACCA; sugars from the 5' end ddlddldlddddlddlldddlddld, [5mC] at 3, 6, 21, 24, backbone not given here; further chemistry not fully specified) [compound 12805] | 82.5 °C |

| Substance | Average duplex melting temp. |
| --- | --- |
| 12806 (DNA CCGATTAAACGAGAGACAGTATGCT; sugars from the 5' end llddlldddlddddddlddldldld, all C 5-methyl, backbone not given here; further chemistry not fully specified) [compound 12806] | 79.4 °C |
| 12807 (DNA ATCAAATAGGAATTCAGCTAAAGCC; sugars from the 5' end dlldddldddddldlddllddddld, [5mC] at 3, 15, 18, 24, backbone not given here; further chemistry not fully specified) [compound 12807] | 71.4 °C |
| 12808 (DNA GACCTAAGAACATAAAGCTGGCAAT; sugars from the 5' end ddllldddddldlddddllddlddd, all C 5-methyl, backbone not given here; further chemistry not fully specified) [compound 12808] | 78.9 °C |
| 12809 (DNA AAATAGCAGCAATGGCCTCGTCTTG; sugars from the 5' end dddlddlddlddlddldlldlddld, [5mC] at 7, 10, 16, 19, backbone not given here; further chemistry not fully specified) [compound 12809] | 86.8 °C |
| 12810 (DNA ATAGCAGCAATGGCCTCGTCTTGGC; sugars from the 5' end dlddldddddlddldldddldlddd, [5mC] at 5, 14, 20, backbone not given here; further chemistry not fully specified) [compound 12810] | 83 °C |
| 12811 (DNA GCAATGGCCTCGTCTTGGCCAACGA; sugars from the 5' end d10 l1 d1 l2 d11, [5mC] at 11, 14, backbone not given here; further chemistry not fully specified) [compound 12811] | 79.3 °C |
| 12812 (DNA GATGAACTCAGGTGGATAGGATCTT; sugars from the 5' end ddldddllldddldddlddddllld, all C 5-methyl, backbone not given here; further chemistry not fully specified) [compound 12812] | 77.3 °C |
| 12813 (DNA TCAGTTAGCCAATCCTTCGCTTCAT; sugars from the 5' end llddlddddlddldldlldlddldd, [5mC] at 2, 10, 15, 18, 20, 23, backbone not given here; further chemistry not fully specified) [compound 12813] | 81.8 °C |
| 12814 (DNA GTTGCCATGGAGTTCAAAATCTGTC; sugars from the 5' end dlddlldlddddldlddddllddld, [5mC] at 5, 6, 15, 21, backbone not given here; further chemistry not fully specified) [compound 12814] | 78.3 °C |
| 12815 (DNA AGACGTACAGCATCAGAAATAGCAG; DNA at AG, LNA at CT, all C 5-methyl, backbone not given here; further chemistry not fully specified) [compound 12815] | 81.9 °C |
| 12816 (DNA TTTGGTAGCACGACAAGCTTAGTAT; sugars from the 5' end ldlddlddldlddldddldlddldd, all C 5-methyl, backbone not given here; further chemistry not fully specified) [compound 12816] | 79 °C |
| 12817 (DNA ATAAAGCTGGCAATAGGTCTCTTTT; sugars from the 5' end dlddddllddlddldddllldllld, [5mC] at 7, 11, 19, backbone not given here; further chemistry not fully specified) [compound 12817] | 81.2 °C |
| 12818 (DNA TTTTTCGGCCAAACGATCTTGAATT; sugars from the 5' end ldldllddlldddldddldldddld, all C 5-methyl, backbone not given here; further chemistry not fully specified) [compound 12818] | 77.8 °C |
| 12819 (DNA CACTCTAACAGTTTCGCCGTTTCTA; sugars from the 5' end ldldldddldddldddlddldllld, [5mC] at 1, 3, 5, 9, 17, 23, backbone not given here; further chemistry not fully specified) [compound 12819] | 81.9 °C |
| 12820 (DNA TCAATGGCCTTGCACCATATAATTG; sugars from the 5' end llddlddldlldlddldldlddlld, [5mC] at 2, 8, 13, 16, backbone not given here; further chemistry not fully specified) [compound 12820] | 83.5 °C |
| 12821 (DNA AAAACGACAGCATAAGGCTTTCTTC; sugars from the 5' end ddddlddlddldlddddlldlldld, [5mC] at 5, 8, 11, 18, 22, backbone not given here; further chemistry not fully specified) [compound 12821] | 79 °C |
